According to patent US20240358672A1, “APPLICATION OF GENISTEIN AND ITS PHOSPHATE ESTER DERIVATIVE AND PHARMACEUTICAL COMPOSITION COMPRISING THE SAME” (National Taiwan University, priority 2023, published 2024):

Legend:
[1] = system: WT hiPSC-ECs and CB1 CRISPRi hiPSC-ECs; assay: TNF-α challenge of WT and CB1 CRISPRi hiPSC-ECs; settings: 10 ng/ml TNF-α with 10 μM genistein
[2] = biological target: CB1 receptor (Homo sapiens, UniProt P21554); assay: GTPase-Glo assay (in vitro GTPase assay); assay type: biochemical
Chain of CB1 receptor (P21554 whole entry): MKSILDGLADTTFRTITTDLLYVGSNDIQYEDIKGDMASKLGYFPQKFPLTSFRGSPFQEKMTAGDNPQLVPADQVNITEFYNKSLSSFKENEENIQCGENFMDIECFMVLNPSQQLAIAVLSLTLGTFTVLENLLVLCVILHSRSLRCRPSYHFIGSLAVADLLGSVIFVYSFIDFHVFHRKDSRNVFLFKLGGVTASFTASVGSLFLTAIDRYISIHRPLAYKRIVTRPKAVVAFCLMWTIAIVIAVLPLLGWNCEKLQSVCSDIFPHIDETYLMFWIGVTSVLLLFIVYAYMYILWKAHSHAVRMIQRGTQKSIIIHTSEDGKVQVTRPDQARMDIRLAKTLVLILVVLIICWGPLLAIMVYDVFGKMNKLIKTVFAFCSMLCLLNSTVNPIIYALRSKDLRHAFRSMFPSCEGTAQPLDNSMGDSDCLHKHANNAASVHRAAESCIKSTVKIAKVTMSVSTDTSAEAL

[3] = system: engineered heart tissues (EHTs) composed of hiPSC-ECs and hiPSC-CMs; assay: Engineered heart tissues (EHTs) contractility
Method: FIG. 8A to 8C illustrate the effects of genistein and Δ^9-THC on cardiac contraction in vivo or in vitro experiments according to Example 9. […] After treatment exposure, the contractility, relaxation and peak force of EHT were measured using the Sony imaging platform. FIG. 8B: Same as the former, analysis of heart rate and contraction-relaxation (CR) interval (48 hours). […] Mice were anesthetized with 1%-2% isoflurane, and images were acquired in the parasternal long-axis (PLA) and parasternal short axis (PSA) on a Visualsonic Vevo 2100 platform. The ventricular (LV) dimensions were traced offline, and the ejection fraction (EF) was calculated using Simpson's biplane method of discs.
The inventor used engineered heart tissues (EHTs) composed of hiPSC-ECs and hiPSC-derived cardiomyocytes (hiPSC-CMs) to interrogate the effects of genistein and Δ^9-THC on contractility in vitro.

[4] = system: LDL receptor knockout mice (B6.129S7-Ldlr^tm1Her/J); assay: Chronic atherosclerosis in Ldlr−/− mice on high-fat diet; assay type: in vivo, mouse; settings: HFD 12 weeks
Excerpt: FIG. 9A to 9E illustrate the effect of Δ^9-THC and genistein on the formation of chronic atherosclerosis according to Example 10. FIG. 9A: The body weights of Ldlr^−/− mice after exposure to (1) vehicle control (n=10), (2) Δ^9-THC (n=12), or (3) Δ^9-THC plus genistein (n=12). FIG. 9B: Lipid profiles of serum samples (left panel) and blood pressure (right panel) of Ldlr^−/− mice after exposure to (1) vehicle control (n=10 (left), n=3 (right)), (2) Δ^9-THC (n=12 (left), n=4 (right)), and (3) Δ^9-THC plus genistein (n=12 (left), n=4 (right)). The blood pressure was measured by tail-cuff. FIG. 9C: Oil red O staining of atherosclerotic plaques in cross-sections at the aortic root level (upper panel). Quantitation of atherosclerotic plaques: (1) vehicle control (n=10), (2) Δ^9-THC (n=10), and (3) Δ^9-THC plus genistein (n=11) (bottom panel). FIG. 9D: Gross images of oil red O stained Ldlr^−/− thoracic aorta are shown (left panel). Quantification of plaque size by en face analysis of thoracic aorta after exposure to (1) vehicle control (n=10), (2) Δ^9-THC (n=12), or (3) Δ^9-THC plus genistein (n=12). FIG. 9E: Immunostaining of CD68 in cross-sections at the aortic root level (upper panel). Quantitation of CD68-positive area from (1) vehicle control (n=10), (2) Δ^9-THC (n=9), and (3) Δ^9-THC plus genistein (n=10) (bottom panel).
In this part, In order to investigate the effect of Δ^9-THC and genistein in chronic atherosclerosis formation, LDL receptor knockout mice (B6.129S7-Ldlr^tm1Her/J) were fed a high-fat diet (HFD) for 12 weeks and treated with (1) vehicle control (n=10 to 12/group), (2) Δ^9-THC (n=10 to 12/group, administered Δ^9-THC 1 mg/kg), or (3) Δ^9-THC and genistein (n=10 to 12/group, administered Δ^9-THC 1 mg/kg plus genistein 50 mg/kg). […] After 12 weeks of HFD, the mice were euthanized, and the atherosclerotic lesion area was examined by cross-sections of the aortic root and an en face analysis of the thoracic aorta. […] Macrophage recruitment in the aortic root was analyzed using aortic plaque stained with an anti-CD68 antibody.

[5] = system: various organs; settings: in vivo
[6] = In vivo fluorescence imaging (IVIS) biodistribution; settings: inferred from BODIPY517/547-genistein distribution
Method: High-magnification images of the green-boxed area are shown with the scale bar at 100 mm. […] Total cell lysates were prepared, and the expression of phosphorylated NF-κB and NF-κB was analyzed by western blot analysis. Immunoblots were quantified by ImageJ software (left panel). […] The in vivo fluorescence images were detected by the IVIS Spectrum at indicated time points. All mice were sacrificed at 48 hours, and major organs were collected and then fixed using formalin (left panel). Fluorescence images were quantified using the IVIS imaging system. […] Images of the brain, heart and lung, thoracic aorta, liver, spleen, kidney, intestine, colon, and blood were obtained from mice (n=5) (right panel). Fluorescence images were quantified using the ImageJ software (middle bottom).

[7] = system: hiPSC-ECs; assay: CellROX oxidative stress assay / ROS-Glo H2O2 assay in hiPSC-ECs; settings: 5 μM Δ^9-THC alone, 48 hours
[8] = Plasma concentration by LC-MS analysis; settings: Δ^9-THC 1 mg/kg
[9] = system: hiPSC-ECs; assay: Monocyte (U937) adhesion assay on hiPSC-ECs; settings: 5 μM Δ^9-THC alone, 48 hours
[10] = system: HUVECs; assay: qPCR gene expression in HUVECs; settings: 5 μM Δ^9-THC, 48 hours, normalized to GAPDH
[11] = system: human endothelial cells (HUVECs and HCAECs); assay: CellTiter-Glo cell viability, human endothelial cells; settings: increasing concentrations of Δ^9-THC, 48 hours
[12] = system: hiPSC-ECs; assay: CellTiter-Glo cell viability, hiPSC-ECs; settings: various concentrations, 24 or 48 hours
[13] = system: hiPSC-ECs; assay: Wash-out experiments, inflammation-related gene expression in hiPSC-ECs; settings: 5 μM Δ^9-THC 48 hours, then fresh medium
[14] = Δ^9-THC 1 mg/kg plus genistein 50 mg/kg

## O=c1c(-c2ccc(O)cc2)coc2cc(O)cc(O)c12 [genistein]
[1]; CB1 CRISPRi hiPSC-ECs
  expression of ILIA: increased significantly
[1]; WT hiPSC-ECs
  TNF-α-increased expression of CXCR8: attenuated
  TNF-α-increased expression of IL6: attenuated
  expression of ILIA: decreased
[1]; WT or CB1 CRISPRi hiPSC-ECs
  TNF-α-increased expression of SOD1: not attenuated
[2]
  function at CB1 in in vitro GTPase assay: neutral antagonist
[2]; GTPase-Glo assay
  GTP turnover compared with Apo: same GTP turnover as Apo
[3]
  contraction, relaxation, and peak force of EHTs: no significant effect
  Δ^9-THC effects on beat rate and contraction-relaxation interval: did not attenuate these effects
[4]; [14]
  CD68-positive area in the aortic root: rescued
  plaque formation, en face analysis of the thoracic aorta (oil red O): improvement of plaque formation
  plaque size, cross-sections of the aortic root: ameliorated plaque size
  serum lipid profiles or blood pressure: Neither Δ^9-THC nor cotreatment with Δ^9-THC and genistein affected
[5]
  toxicity to various organs: did not exhibit any toxicity to various organs
[6]
  blood-brain barrier (BBB) penetration: poor blood-brain barrier (BBB) penetration

## CCCCCc1cc(O)c2c(c1)OC(C)(C)[C@@H]1CCC(C)=C[C@@H]21 [Δ^9-THC, Δ^9-tetrahydrocannabinol]
[3]; 5 μM Δ^9-THC, 48 hours
  beat rate of EHTs: decreased beat rate
  contraction-relaxation interval of EHTs: increased the contraction-relaxation interval
[7]
  cellular oxidative stress (CellROX): induced cellular oxidative stress
[8]
  plasma concentration: ~100 ng/mL
[9]
  monocyte adhesion to hiPSC-ECs: increased adhesion
[10]
  antioxidant-related gene expression: reduced the antioxidant-related gene expression
  expression of inflammation-related genes: induced the expression of inflammation-related genes
[4]; Δ^9-THC 1 mg/kg
  CD68-positive area in the aortic root: significantly increased
  plaque size, cross-sections of the aortic root: significantly increased plaque size
  serum lipid profiles or blood pressure: Neither Δ^9-THC nor cotreatment with Δ^9-THC and genistein affected
[11]
  cytotoxicity (cell viability): induced cytotoxicity
[12]
  cytotoxicity (cell viability): induced cytotoxicity
[13]
  time the induced expression of proinflammatory cytokines and chemokines was sustained (recovery time): 8 to 10 days
